The values below come from EPA's ToxValDB 9.5 (doi:10.2903/j.efsa.2016.4374).

Values after ≈ are worked out from the molar mass of the structure shown.

The subject of one series is Hypoaspis aculeifer. The conditions noted are these: chronic/long-term; duration: 14 days; mortality.
The subject of another series is Danio rerio. As to conditions: chronic; growth.
For the next series, the system named is Tagia sp. The conditions noted are these: chronic/long-term; duration: 56 days; reproduction.
The test system of a further series is Daphnia magna. The conditions noted are these: chronic/long-term; reproduction.
The next series has as its system Pleurozium sp. The conditions noted are these: acute; growth.
Another series concerns Folsomia candida. The conditions noted are these: chronic/long-term; duration: 28 days; mortality.
For a further series, the system named is Apis mellifera. The conditions noted are these: acute, duration: 48 hours, mortality.
For the next series, the system named is Anas platyrhynchos. As to conditions: acute; oral; unspecified; mortality.
The subject of a further series is Cyprinus carpio. The conditions noted are these: acute; mortality.
The next series relates to Canidae. The conditions noted are these: subchronic; duration: 90 days; oral; Dog Other; organ weight.
The next series relates to Bibionidae. As to conditions: chronic/long-term; growth.
The subject of another series is Myriophyllum spicatum. As to conditions: acute; growth.
Another series relates to Typhlodromus pyri. The series can be described thus: LR50; higher = less toxic. The conditions noted are these: not reported; mortality.

For orientation: LC50 means the concentration lethal to half of the exposed cells or organisms. The NOAEL is the highest dose or exposure tested at which no adverse effect was seen. Consider `CCOC1Oc2ccc(OS(C)(=O)=O)cc2C1(C)C` (centres undefined) [Ethofumesate], for which the NOEC in the series with Hypoaspis aculeifer is 22.1 mg/kg; in the series with Danio rerio it was 0.156 mg/L; in the series on Tagia sp. it was 12.5 mg/kg; with Daphnia magna it was 0.25 mg/L; with Pleurozium sp., 9.68 mg/L; with Folsomia candida, 13.3 mg/kg. The NOEC came out at 3.82 mg/L with Bibionidae and 0.25 mg/L in the series on Myriophyllum spicatum. In addition, the LD50 with Apis mellifera (dermal) is > 50 µg/piece; with Apis mellifera (oral, unspecified) it was > 50 µg/piece; in the series on Anas platyrhynchos, 3780 mg/kg-day; in the series with Rattus norvegicus (acute, oral, mortality), > 5000 mg/kg-day; with Colinus virginianus (acute, oral, mortality) it was 3780 mg/kg-day. The LC50 in the series with Cyprinus carpio came out at 10.9 mg/L (≈ 38.1 µM). Also, the NOAEL with Rattus norvegicus (chronic, duration: 2 years, oral, F, organ weight) was determined as 101 mg/kg-day; in the series with Rattus norvegicus (reproduction developmental, body weight), 60.9 mg/kg-day; in the series on Canidae it was 250 mg/kg-day. In addition, the NOEL with Colinus virginianus (reproduction developmental) stood at 265 mg/kg-day. Moreover, in the series with Typhlodromus pyri, the LR50 is > 1000 g/ha.
